Test [1] has as its system BCL2 mRNA. Nature of the test: qPCR of BCL2 mRNA in MCF7 cells. It counts as cell-based, human. As to conditions: 72 h. On the procedure: (§1) qPCR. MCF7 and melanoma cells were treated with GTC365 and BRACO-19 for 72 h. Total RNA was extracted using an RNeasy mini-prep kit (Qiagen) and quantitated by measuring absorbance at 260 nm. cDNA was synthesized using a Takara PrimeScript™ RT Reagent Kit with gDNA eraser and then used as a template for qPCR. The qPCR was performed using Kapa Probe Fast qPCR Master Mix with ABI Taqman probes of hTERT (Hs00972656_m1), BCL2 (HS00608023_m1, FAM-labeled) or MYC (Hs00153408_m1), and GAPDH (Hs02758991_g1, VIC-labeled). The Ct values were measured by running Rotor-Gene Q, and the relative quantity of hTERT, BCL2, and MYC mRNA was obtained compared to GAPDH as an internal control.
(§2) BCL2 is a downstream molecule to hTERT such that BCL2 expression is activated by hTERT to repress apoptosis. To further define the effect of GTC365 on the transcription of hTERT, the relative mRNA levels of MYC and BCL2 were determined by quantitative PCR analysis in MCF7 cells after treatment with GTC365 for 72 h. […] A series of GTC260 analogs were synthesized and their effect on hTERT gene expression in MCF7A and U87 cells determined (FIG. 7). […] Therefore, GTC365 directly repressed the transcription of hTERT and then led to a downstream decrease of BCL2 expression.
For orientation: Real-time PCR tracks product formation cycle by cycle.

Test [2] concerns MYC mRNA. The test is described as follows: qPCR of MYC mRNA in MCF7 cells. It counts as cell-based, human. As to conditions: 72 h. On the procedure: as §1, §2

For `Cc1cc(NC(=O)NC(=O)c2ccccc2NC(=O)C(C)N)ccc1Oc1ncc(Br)cn1` (centres unmarked) [GTC260], the “effect on BCL2 mRNA level” value in test [1] is “direct repression of hTERT transcription and the downstream molecule BCL2”. Besides, the “effect on MYC mRNA level” value in test [2] is reported as “no effect”.

The record behind these values is patent US10556860B2, “hTERT modulators and methods of use” (Arizona Board of Regents on Behalf of the University of …, priority 2015, dated 2020).
